Like-named read-outs stand apart in the source and are kept apart here.
Columns and labels:
[1] = system: iCell cardiomyocytes (human iPSC-derived cardiomyocytes); assay: High-content imaging of cytotoxicity and mitochondrial integrity in iPSC-CMs; assay type: cell-based; details: Homo sapiens, Cardiomyocyte, cardiomyocytes (cm)
How it was run: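 Readouts from high-content images were normalized to vehicle controls containing 0.5% vol/vol DMSO. They were fit to a four-parameter logistic model in R. Points of departure were set using a cutoff of one standard deviation across vehicle control means. Where no concentration–response was seen, the top tested concentration of 100μM was assigned as the no observable adverse effect level.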

[2] = system: HUVECs; assay: High-content imaging cytotoxicity in HUVECs, 24 h; assay type: cell-based, human; details: Homo sapiens, HUVEC, 24 h, HUVEC, 24 hr
How it was run: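 HUVECs (passages 1–5) were plated at 750 cells/well without fibronectin, grown to a monolayer (3–5 d) and exposed to compounds for 24 h at 37°C, 5% CO2. Hoechst 33342, MitoTracker Orange and calcein AM staining was imaged at 10×; readouts were normalized to 0.5% DMSO vehicle and fit to a four-parameter logistic model.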

Work on `COc1ccc(-c2cccc(Cl)c2)cc1Cl` [4-OMe-PCB 11, 4-methoxy-3,3′-dichlorobiphenyl] yielded a minimal effective concentration ([1]; 1.5 h, cam, 90 min, read-out: POD cm.cam.90min) of 33.8 µM, a minimal effective concentration ([1]; 1.5 h, mii, 90 min, read-out: POD cm.mii.90min) of 62.2 µM and a minimal effective concentration ([1]; 1.5 h, mito, 90 min, read-out: POD cm.mito.90min) of 29.1 µM. It also gave a minimal effective concentration ([1]; 1.5 h, tc, 90 min, read-out: POD cm.tc.90min) of 28.6 µM, a minimal effective concentration ([1]; 24 h, cam, 24 hrs, read-out: POD cm.cam.24hrs) of 37.2 µM and a minimal effective concentration ([1]; 24 h, mii, 24 hrs, read-out: POD cm.mii.24hrs) of 10.8 µM. It also gave a minimal effective concentration ([1]; 24 h, mito, 24 hrs, read-out: POD cm.mito.24hrs) of 31.1 µM, a minimal effective concentration ([1]; 24 h, tc, 24 hrs, read-out: POD cm.tc.24hrs) of 33.4 µM and a minimal effective concentration ([2]; cyto, read-out: POD huvec.cyto.24hr) of 7.59 µM. The minimal effective concentration ([2]; mito, read-out: POD huvec.mito.24hr) was 6.19 µM, the minimal effective concentration ([2]; mitoint, read-out: POD huvec.mitoint.24hr) was 16 µM and the minimal effective concentration ([2]; nma, read-out: POD huvec.nma.24hr) was 6.39 µM. The minimal effective concentration ([2]; tc, read-out: POD huvec.tc.24hr) was 7.59 µM.

Reference: paper PMC7377239, “Cardiovascular Effects of Polychlorinated Biphenyls and Their Major Metabolites” (Environmental Health Perspectives, 2020)
